# Source: patent US6355799B1, “Substituted benzene compounds, process for their preparation, and herbicidal and defoliant compositions containing them” (ISK Americas Incorporated, priority 1997, dated 2002)
# Assays:
# Assay type in all cases: in vivo
# [1] = tested on: lambsquarters (Chenopodium album, CHEAL); experiment: Post-emerge test, greenhouse herbicide activity screening; conditions: rating scale 0-100 (0 no damage, 100 complete death), 14 days after application
# Outline: (§1)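 Applied at 15–1000 g ai/ha from acetone in 187 l/ha spray volume. Post-emergence applications included 0.25% v/v non-ionic surfactant and reached plants sown 8–21 days before. Pre-emergence applications were incorporated by surface watering. Efficacy or crop damage was rated on a 0–100 scale after 14 days.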
# [2] = tested on: velvetleaf (Abutilon theophrasti, ABUTH); experiment: as above; conditions: rating scale 0-100 (0 no damage, 100 complete death), 14 days after application
# Outline: as §1
# [3] = tested on: large crabgrass (Digitaria sanguinalis, DIGSA); experiment: as above; conditions: rating scale 0-100 (0 no damage, 100 complete death), 14 days after application
# Outline: as §1
# [4] = tested on: redroot pigweed (Amaranthus retroflexus, AMARE); experiment: as above; conditions: rating scale 0-100 (0 no damage, 100 complete death), 14 days after application
# Outline: as §1
# [5] = tested on: sicklepod (Cassia obtusifolia, CASOB); experiment: as above; conditions: rating scale 0-100 (0 no damage, 100 complete death), 14 days after application
# Outline: as §1
# [6] = tested on: ivyleaf morningglory (Ipomoea hederacea, IPOHE); experiment: as above; conditions: rating scale 0-100 (0 no damage, 100 complete death), 14 days after application
# Outline: as §1
# [7] = tested on: green foxtail (Setaria viridis, SETVI); experiment: as above; conditions: rating scale 0-100 (0 no damage, 100 complete death), 14 days after application
# Outline: as §1
# [8] = tested on: barnyardgrass (Echinochloa crus-galli, ECHCG); experiment: as above; conditions: rating scale 0-100 (0 no damage, 100 complete death), 14 days after application
# Outline: as §1
# [9] = tested on: common ragweed (Ambrosia artemisizfolia L., AMBEL); experiment: as above; conditions: rating scale 0-100 (0 no damage, 100 complete death), 14 days after application
# Outline: as §1
# [10] = tested on: johnsongrass (Sorghum halepense, SORHA); experiment: as above; conditions: rating scale 0-100 (0 no damage, 100 complete death), 14 days after application
# Outline: as §1
# [11] = tested on: lambsquarters (Chenopodium album, CHEAL); experiment: Pre-emerge test, greenhouse herbicide activity screening; conditions: rating scale 0-100, 14 days after application
# Outline: (§2)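 Compounds in acetone were track-sprayed at 15-1000 g ai/ha (187 l/ha) on sandy loam pots: pre-emerge one day after seeding, post-emerge at 2-3 leaf stage with 0.25% v/v non-ionic surfactant. Phytotoxicity was rated 14 days later on a 0 (no damage) to 100 (complete death) scale.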
# [12] = tested on: velvetleaf (Abutilon theophrasti, ABUTH); experiment: as above; conditions: rating scale 0-100, 14 days after application
# Outline: as §2
# [13] = tested on: large crabgrass (Digitaria sanguinalis, DIGSA); experiment: as above; conditions: rating scale 0-100, 14 days after application
# Outline: as §2
# [14] = tested on: sicklepod (Cassia obtusifolia, CASOB); experiment: as above; conditions: rating scale 0-100, 14 days after application
# Outline: as §2
# [15] = tested on: ivyleaf morningglory (Ipomoea hederacea, IPOHE); experiment: as above; conditions: rating scale 0-100, 14 days after application
# Outline: as §2
# [16] = tested on: green foxtail (Setaria viridis, SETVI); experiment: as above; conditions: rating scale 0-100, 14 days after application
# Outline: as §2
# [17] = tested on: barnyardgrass (Echinochloa crus-galli, ECHCG); experiment: as above; conditions: rating scale 0-100, 14 days after application
# Outline: as §2
# [18] = tested on: johnsongrass (Sorghum halepense, SORHA); experiment: as above; conditions: rating scale 0-100, 14 days after application
# Outline: as §2
# [19] = tested on: upland rice (Oryza sp., var. Tebonnet, RICE); experiment: Pre-emerge test, crop safety; conditions: rating scale 0-100, 14 days after application
# Outline: (§3)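 Visual ratings on a 0-100 scale (0 no damage, 100 all plants dead) were taken at 14 days after treatment. Rates of 15-1000 g ai/ha in acetone, 187 l/ha, were sprayed onto soil one day after planting (pre-emerge) or onto 2-3 leaf plants with 0.25% v/v surfactant (post-emerge).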
# [20] = tested on: field corn (Zea mays L., var. Dekalb 535, CORN); experiment: Pre-emerge test, crop safety; conditions: rating scale 0-100, 14 days after application
# Outline: as §3
# [21] = tested on: redroot pigweed (Amaranthus retroflexus, AMARE); experiment: Pre-emerge test, greenhouse herbicide activity screening; conditions: rating scale 0-100, 14 days after application
# Outline: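 Plants grown in 10 cm pots of sandy loam mix received acetone-dissolved compounds through a moving flat-fan nozzle. Doses ranged from 15 to 1000 g ai/ha. Pre-emerge pots were seeded one day earlier, post-emerge pots 8–21 days earlier. Fourteen days on, each pot was graded 0–100 for damage.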
# [22] = tested on: upland rice (Oryza sp., var. Tebonnet, RICE); experiment: Post-emerge test, crop safety; conditions: rating scale 0-100 (0 no damage, 100 complete death), 14 days after application
# Outline: as §2
# [23] = tested on: field corn (Zea mays L., var. Dekalb 535, CORN); experiment: Post-emerge test, crop safety; conditions: rating scale 0-100 (0 no damage, 100 complete death), 14 days after application
# Outline: as §2
compound,measurement,setting,value
"CCCOC(=O)C(Cl)Cc1c(OC)c(Cl)cc(F)c1-n1c(=O)cc(C(F)(F)F)n(C)c1=O (single isomer, unassigned) [14-6]","Post-emerge Herbicidal Activity, phytotoxicity rating CHEAL",[1]; Rate 63 g ai/ha,80
same,"Post-emerge Herbicidal Activity, phytotoxicity rating CHEAL",[1]; Rate 250 g ai/ha,100
same,"Post-emerge Herbicidal Activity, phytotoxicity rating ABUTH",[2]; Rate 63 g ai/ha,90
same,"Post-emerge Herbicidal Activity, phytotoxicity rating ABUTH",[2]; Rate 250 g ai/ha,100
same,"Post-emerge Herbicidal Activity, phytotoxicity rating DIGSA",[3]; Rate 63 g ai/ha,50
same,"Post-emerge Herbicidal Activity, phytotoxicity rating DIGSA",[3]; Rate 250 g ai/ha,75
same,"Post-emerge Herbicidal Activity, phytotoxicity rating AMARE",[4]; Rate 63 g ai/ha,95
same,"Post-emerge Herbicidal Activity, phytotoxicity rating AMARE",[4]; Rate 250 g ai/ha,100
same,"Post-emerge Herbicidal Activity, phytotoxicity rating CASOB",[5]; Rate 63 g ai/ha,50
same,"Post-emerge Herbicidal Activity, phytotoxicity rating CASOB",[5]; Rate 250 g ai/ha,100
same,"Post-emerge Herbicidal Activity, phytotoxicity rating IPOHE",[6]; Rate 63 g ai/ha,70
same,"Post-emerge Herbicidal Activity, phytotoxicity rating IPOHE",[6]; Rate 250 g ai/ha,100
same,"Post-emerge Herbicidal Activity, phytotoxicity rating SETVI",[7]; Rate 63 g ai/ha,30
same,"Post-emerge Herbicidal Activity, phytotoxicity rating SETVI",[7]; Rate 250 g ai/ha,80
same,"Post-emerge Herbicidal Activity, phytotoxicity rating ECHCG",[8]; Rate 63 g ai/ha,99
same,"Post-emerge Herbicidal Activity, phytotoxicity rating ECHCG",[8]; Rate 250 g ai/ha,100
same,"Post-emerge Herbicidal Activity, phytotoxicity rating AMBEL",[9]; Rate 63 g ai/ha,40
same,"Post-emerge Herbicidal Activity, phytotoxicity rating AMBEL",[9]; Rate 250 g ai/ha,80
same,"Post-emerge Herbicidal Activity, phytotoxicity rating SORHA",[10]; Rate 63 g ai/ha,50
same,"Post-emerge Herbicidal Activity, phytotoxicity rating SORHA",[10]; Rate 250 g ai/ha,65
same,"Pre-emerge herbicidal activity, phytotoxicity rating CHEAL",[11]; 63 g ai/ha,20
same,"Pre-emerge herbicidal activity, phytotoxicity rating CHEAL",[11]; 250 g ai/ha,100
same,"Pre-emerge herbicidal activity, phytotoxicity rating ABUTH",[12]; 63 g ai/ha,30
same,"Pre-emerge herbicidal activity, phytotoxicity rating ABUTH",[12]; 250 g ai/ha,100
same,"Pre-emerge herbicidal activity, phytotoxicity rating DIGSA",[13]; 63 g ai/ha,90
same,"Pre-emerge herbicidal activity, phytotoxicity rating DIGSA",[13]; 250 g ai/ha,100
same,"Pre-emerge herbicidal activity, phytotoxicity rating CASOB",[14]; 63 g ai/ha,30
same,"Pre-emerge herbicidal activity, phytotoxicity rating CASOB",[14]; 250 g ai/ha,30
same,"Pre-emerge herbicidal activity, phytotoxicity rating IPOHE",[15]; 63 g ai/ha,10
same,"Pre-emerge herbicidal activity, phytotoxicity rating IPOHE",[15]; 250 g ai/ha,20
same,"Pre-emerge herbicidal activity, phytotoxicity rating SETVI",[16]; 63 g ai/ha,10
same,"Pre-emerge herbicidal activity, phytotoxicity rating SETVI",[16]; 250 g ai/ha,100
same,"Pre-emerge herbicidal activity, phytotoxicity rating ECHCG",[17]; 63 g ai/ha,0
same,"Pre-emerge herbicidal activity, phytotoxicity rating ECHCG",[17]; 250 g ai/ha,70
same,"Pre-emerge herbicidal activity, phytotoxicity rating SORHA",[18]; 63 g ai/ha,0
same,"Pre-emerge herbicidal activity, phytotoxicity rating SORHA",[18]; 250 g ai/ha,30
same,"Pre-emerge phytotoxicity rating, crop damage RICE",[19]; 63 g ai/ha,15
same,"Pre-emerge phytotoxicity rating, crop damage RICE",[19]; 250 g ai/ha,50
same,"Pre-emerge phytotoxicity rating, crop damage CORN",[20]; 63 g ai/ha,0
same,"Pre-emerge phytotoxicity rating, crop damage CORN",[20]; 250 g ai/ha,5
same,"Pre-emerge herbicidal activity, phytotoxicity rating AMARE",[21]; 63 g ai/ha,100
same,"Pre-emerge herbicidal activity, phytotoxicity rating AMARE",[21]; 250 g ai/ha,100
same,Post-emerge phytotoxicity rating RICE (crop damage),[22]; Rate 63 g ai/ha,0
same,Post-emerge phytotoxicity rating RICE (crop damage),[22]; Rate 250 g ai/ha,35
same,Post-emerge phytotoxicity rating CORN (crop damage),[23]; Rate 63 g ai/ha,50
same,Post-emerge phytotoxicity rating CORN (crop damage),[23]; Rate 250 g ai/ha,60
